Counter-ions that a name gives are not always drawn.
Target: T1, human neuropeptide Y5 receptor (Homo sapiens, UniProt Q15761)
T1 construct: expressed in transfected cells; host or cells: HEK-293 (stably transfected, G-418 selected); membranes
T1 sequence (Q15761 1-445): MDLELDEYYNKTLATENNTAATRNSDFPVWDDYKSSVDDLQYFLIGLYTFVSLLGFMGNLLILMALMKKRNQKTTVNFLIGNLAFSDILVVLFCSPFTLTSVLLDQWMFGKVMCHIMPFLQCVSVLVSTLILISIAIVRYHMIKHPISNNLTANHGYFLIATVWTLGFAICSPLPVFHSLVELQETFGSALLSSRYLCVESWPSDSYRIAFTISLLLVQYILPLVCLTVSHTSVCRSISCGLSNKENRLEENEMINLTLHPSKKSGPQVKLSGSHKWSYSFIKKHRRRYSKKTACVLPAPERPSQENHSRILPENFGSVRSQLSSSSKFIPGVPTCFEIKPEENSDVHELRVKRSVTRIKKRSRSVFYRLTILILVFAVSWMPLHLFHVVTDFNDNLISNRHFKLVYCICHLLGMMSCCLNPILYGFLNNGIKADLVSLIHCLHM
Assay: NPY5 HTS centrifugation assay: competition with 125I-PYY for binding to membranes of NPY5-transfected HEK293 cells
Details: 80 pM 125I-PYY, 1 hr room temperature; for inhibition at 0.3 µM / % Inh @ 300 nM (% Inhibition of 125I-PYY Binding): 300 nM compound; for inhibition at 0.3 µM: read-out: % Inh @ 300 nM (% Inhibition of 125I-PYY Binding); for inhibition at 3 µM / % Inh @ 3 uM (% Inhibition of 125I-PYY Binding): 3 uM compound; for inhibition at 3 µM: read-out: % Inh @ 3 uM (% Inhibition of 125I-PYY Binding)
Procedure: The compounds described in this invention were evaluated for binding to the human neuropeptide Y5 receptor.
Stably transfected cells served as the source for the membranes for the NPY5 receptor binding assay.
NPY5-transfected HEK293 cells were grown to confluence in 150 cm^2 culture dishes. […] Cells were then incubated in phosphate-buffered saline without Calcium and without Magnesium, supplemented with 2 mM EDTA. Cells were incubated for 10 minutes at room temperature and the cells were collected by repetitive pipeting. Cells were formed into pellets and then frozen at −80 until needed. Frozen pellets were homogenized with a polytron at full speed for 12 seconds in a homogenization buffer (20 mM Tris HCl, 5 mM EDTA, pH 7.4). Homogenates were centrifuged for 5 minutes at 4 C at 200 g. Supernatants were transferred to corex tubes and centrifuged for 25 minutes at 28,000 g. Pellets were re-suspended in Binding (20 mM HEPES, 10 mM NaCl, 0.22 mM KH2PO4, 1.3 mM CaCl2, 0.8 mM MgSO4, pH 7.4). Membranes were kept on ice until use.
Compounds to be tested were prepared as 10× stocks in binding buffer and added first to assay tubes (RIA vials, Sarstedt). […] To each tube is added 100 μL of membranes and the mixture is agitated by pipeting 2 times. Samples are incubated for 1 hr at room temperature. Aluminum cast plates (Sarstedt) containing the vials are then centrifuged 10 minutes at 3200 rpm in a Sorvall RT6000. Supernatant is then aspirated. To each vial 400 μL PBS is added and this is then aspirated again. Vials are then put in carrier polypropylene 12×75 tube and counted in gamma counter (Packard). Non-specific binding is determined in the presence of 300 nM NPY. […] These operations are known to those skilled in the art.

COc1ccc2c(c1)CC[C@@H](NC(=O)CN1CCC(n3c(=O)[nH]c4ccccc43)CC1)[C@@H]2Cc1cccnc1 (relative stereo) [Compound 20, 4-(2,3-Dihydro-2-oxo-1H-benzimidazol-1-yl)-N-[trans-1,2,3,4-tetrahydro-6-methoxy-1-(3-pyridinylmethyl)-2-naphthalenyl]-1-piperidineacetamide bis-hydrochloride]
inhibition at 0.3 µM: 88% | inhibition at 3 µM: 96%

O=C(CN1CCC(n2c(=O)[nH]c3ccccc32)CC1)NC1CCc2cc(O)ccc2C1 (centres unmarked) [Compound 83]
% Inh @ 300 nM (% Inhibition of 125I-PYY Binding): 72% | % Inh @ 3 uM (% Inhibition of 125I-PYY Binding): 92%

O=C(CN1CCC2(CC1)C(=O)NCN2c1ccccc1)N[C@H]1CCc2ccccc2[C@H]1Cc1cccnc1 (relative stereo) [Compound 22, 4-Oxo-1-phenyl-N-[cis-1,2,3,4-tetrahydro-1-(3-pyridinylmethyl)-2-naphthalenyl]-1,3,8-triazaspiro[4.5]decane-8-acetamide bis-hydrochloride]
inhibition at 0.3 µM: 32% | inhibition at 3 µM: 70%

CC(=O)NC(CCCCNS(=O)(=O)c1ccccc1)C(=O)NC1CCc2ccccc2C1Cc1cccnc1 (mixture of isomers) [Compound 37]
% Inh @ 300 nM (% Inhibition of 125I-PYY Binding): 89% | % Inh @ 3 uM (% Inhibition of 125I-PYY Binding): 102%

COc1ccc2c(c1)CCC(NC(=O)CN1CCC(n3c(=O)[nH]c4ccccc43)CC1)C2 (centres unmarked) [Compound 82]
% Inh @ 300 nM (% Inhibition of 125I-PYY Binding): 63% | % Inh @ 3 uM (% Inhibition of 125I-PYY Binding): 85%

O=S(=O)(NC[C@H]1CC[C@H](CNCC(Cc2cccnc2)c2ccc(F)cc2)CC1)c1ccccc1F (some centres unmarked) [Compound 27]
inhibition at 0.3 µM: 105% | inhibition at 3 µM: 110%

NC(CCCCNS(=O)(=O)c1ccccc1)C(=O)NC1CCc2ccccc2C1Cc1cccnc1 (mixture of isomers) [Compound 33]
% Inh @ 300 nM (% Inhibition of 125I-PYY Binding): 52% | % Inh @ 3 uM (% Inhibition of 125I-PYY Binding): 96%

O=C(CN1CCC(NS(=O)(=O)c2ccccc2F)CC1)NCC(Cc1cccnc1)c1ccc(F)cc1 (centres unmarked) [Compound 30, N-[2-(4-Fluorophenyl)-3-(3-pyridinyl)propyl]-4-[(2-fluorophenylsulfonyl)amino]-1-piperidineacetamide bis-trifluoroacetate]
inhibition at 0.3 µM: 100% | inhibition at 3 µM: 110%

CCNC(=O)NC(CCCCNS(=O)(=O)c1ccccc1)C(=O)NC1CCc2ccccc2C1Cc1cccnc1 (mixture of isomers) [Compound 40]
% Inh @ 300 nM (% Inhibition of 125I-PYY Binding): 21% | % Inh @ 3 uM (% Inhibition of 125I-PYY Binding): 92%

O=C(CN1CCC(NC(=O)c2ccccc2)CC1)NC1CCc2cc(F)ccc2C1Cc1cccnc1 (centres unmarked) [Compound 44]
% Inh @ 300 nM (% Inhibition of 125I-PYY Binding): 93% | % Inh @ 3 uM (% Inhibition of 125I-PYY Binding): 98%

COc1ccc(C(CNC(=O)CN2CCC(n3c(=O)[nH]c4ccccc43)CC2)Cc2cccnc2)cc1 (centres unmarked) [Compound 86]
% Inh @ 300 nM (% Inhibition of 125I-PYY Binding): 88% | % Inh @ 3 uM (% Inhibition of 125I-PYY Binding): 91%

COc1ccc2c(c1)CCC(NC(=O)CN1CCC(n3c(=O)[nH]c4ccccc43)CC1)C2Cc1cnc[nH]1 (centres unmarked) [Compound 73]
% Inh @ 300 nM (% Inhibition of 125I-PYY Binding): 32% | % Inh @ 3 uM (% Inhibition of 125I-PYY Binding): 63%

CC(C)(C)NC(=O)NC1CCN(CC(=O)NC2CCc3cc(F)ccc3C2Cc2cccnc2)CC1 (centres unmarked) [Compound 53]
% Inh @ 300 nM (% Inhibition of 125I-PYY Binding): 84% | % Inh @ 3 uM (% Inhibition of 125I-PYY Binding): 92%

COc1ccc2c(c1)CCC(NC(=O)[C@H](CCCCNS(=O)(=O)c1ccccc1F)NC(C)=O)C2Cc1cccnc1 (stereo partly drawn) [Compound 10, (2S)-2-(Acetylamino)-6-[(2-fluorophenylsulfonyl)amino]-N-[cis-1,2,3,4-tetrahydro-6-methoxy-1-(3-pyridinylmethyl)-2-naphthenyl]hexanamide bis-hydrochloride]
inhibition at 0.3 µM: 60% | inhibition at 3 µM: 96%

COc1ccccc1N1CCN(CC(=O)NC2CCc3ccccc3C2Cc2cccnc2)CC1 (centres unmarked) [Compound 93]
% Inh @ 300 nM (% Inhibition of 125I-PYY Binding): 81% | % Inh @ 3 uM (% Inhibition of 125I-PYY Binding): 97%

NC(CCCCNS(=O)(=O)c1ccccc1)CNC1CCc2ccccc2C1Cc1cccnc1 (mixture of isomers) [Compound 65]
% Inh @ 300 nM (% Inhibition of 125I-PYY Binding): 79% | % Inh @ 3 uM (% Inhibition of 125I-PYY Binding): 98%

CC(C)(C)OC(=O)NC1CCN(CC(=O)NC2CCc3cc(F)ccc3C2Cc2cccnc2)C1 (centres unmarked) [Compound 55]
% Inh @ 300 nM (% Inhibition of 125I-PYY Binding): 96% | % Inh @ 3 uM (% Inhibition of 125I-PYY Binding): 106%

NC(CCCCNS(=O)(=O)c1ccccc1)C(=O)NC1CCc2ccccc2C1Cc1cccnc1 (single isomer, unassigned) [Compound 34b]
% Inh @ 300 nM (% Inhibition of 125I-PYY Binding): 61% | % Inh @ 3 uM (% Inhibition of 125I-PYY Binding): 99%

O=C(CN1CCC(NC(=O)c2ccccc2)CC1)NCC(Cc1cccnc1)c1ccc(F)cc1 (centres unmarked) [Compound 92]
% Inh @ 300 nM (% Inhibition of 125I-PYY Binding): 92% | % Inh @ 3 uM (% Inhibition of 125I-PYY Binding): 104%

CC(=O)C1(c2ccccc2)CCN(CC(=O)N[C@H]2CCc3ccccc3[C@H]2Cc2cccnc2)CC1 (relative stereo) [Compound 21, 4-Acetyl-4-phenyl-N-[cis-1,2,3,4-tetrahydro-1-(3-pyridinylmethyl)-2-naphthalenyl]-1-piperidineacetamide bis-hydrochloride]
inhibition at 0.3 µM: 83% | inhibition at 3 µM: 98%

NC(CCCCNS(=O)(=O)c1ccccc1)C(=O)NC1CCc2ccccc2C1Cc1cccnc1 (single isomer, unassigned) [Compound 34a]
% Inh @ 300 nM (% Inhibition of 125I-PYY Binding): 87% | % Inh @ 3 uM (% Inhibition of 125I-PYY Binding): 97%

O=C(CN1CCC(NC(=O)Nc2ccccc2)CC1)NC1CCc2cc(F)ccc2C1Cc1cccnc1 (centres unmarked) [Compound 45]
% Inh @ 300 nM (% Inhibition of 125I-PYY Binding): 68% | % Inh @ 3 uM (% Inhibition of 125I-PYY Binding): 95%
